Reference: patent US20100144708A1, “HETEROCYCLIC COMPOUNDS CONTAINING NITROGEN ATOMS OR PHARMACEUTICALLY ACCEPTABLE SALTS THEREOF, PROCESS FOR THE PREPARATION THEREOF AND PHARMACEUTICAL COMPOSITION COMPRISING THE SAME FOR TREATMENT OF CANCER” (Korea Research Instititute of Bioscience and Biotechnology, priority 2006, published 2010)

How the values were obtained:
[1] = system: human prostate cancer cell line PC-3; assay: Test for tumor growth inhibition in animal model (PC-3 xenograft); type: in vivo; conditions: 30 mg/kg daily, 20 times, intraperitoneal; final day (day 21); vs vehicle-control; p<0.001
Experimental: Female S.P.F BALB/c nude mice (7-week-old) were grafted with 3×10^7 cells/□ of human prostate cancer cell line PC-3, and then intraperitoneally administered with the compound prepared in Example 55 at a daily dosage of 30 mg/kg 20 times. A positive control group was intraperitoneally administered with adriamycin at a daily dosage of 2 mg/kg 10 times once every two days.
The changes in their body weight are shown in FIG. 1, the changes in tumor size are shown in FIG. 2, and the tumor weights measured on the final day (day 21) are shown in FIG. 3.

[2] = system: human prostate cancer cell line, PC-3 cells; assay: Flow cytometric analysis of apoptosis (PI staining) with NAC; type: cell-based; conditions: 5 uM NAC for 3 hours, then compound 5 uM for 24 hours; compared to cells treated with only the compound
Experimental: 5×10^5 of human prostate cancer cell line, PC-3 cells were cultured in 60 mm diameter-culture dishes with RPMI 1640 media containing 5% FBS in an incubator supplied with 5% CO2 at 37° C. for one day, and then treated with 5 uM NAC (N-acetylcysteine, Sigma) for 3 hours. Then, the cells were treated with the compound prepared in Example 55 at concentrations of 5 uM, cultured for 24 hours. Subsequently, the cells were treated with 0.1% trypsin and detached. The detached cells were transferred to a 15[…] conical tube, and centrifuged at 200×g for 5 minutes to precipitate the cells. Then, the supernatant was removed. 0.5[…] of PBS solution containing 0.1 mg/□ RNase A was added thereto, so as to resuspend the cells. The cells were treated with a PI (propidium iodide) DNA staining solution in a concentration of 50[…]/□ to stain the DNA in the cells for 30 or more minutes. The PI-stained cells were e xcited using a flow cytometer (Becton Dickinson) at 488 nm by a laser beam, and an emission wavelength of 588 nm was represented by a histogram, and then quantitatively analyzed to determine the amount of DNA in the cells.

[3] = system: MBA-MB-231 (breast cancer); assay: Test for inhibition of tumor cell growth (SRB), MBA-MB-231; type: cell-based, Human; conditions: Homo sapiens; 48 hours, SRB staining
How it was run: (§1)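 Cells seeded in RPMI 1640 with 5% FBS, exposed to compound (final […], units as printed) for 48 hours at 37° C with 5% CO2, including a time-zero plate. TCA-fixed, SRB-stained, absorbance at 540 nm as percent of control; GI50 is the 50% growth-inhibition concentration.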

NUGC-3 (gastric cancer) = assay: Test for inhibition of tumor cell growth (SRB), NUGC-3; type: cell-based, Human; conditions: Homo sapiens, NUGC-3; 48 hours, SRB staining
How it was run: as §1

ACHN (kidney cancer) = assay: Test for inhibition of tumor cell growth (SRB), ACHN; type: cell-based, Human; conditions: Homo sapiens, ACHN; 48 hours, SRB staining
How it was run: as §1

[4] = system: human prostate cancer cell line, PC-3 cells; assay: Western blot analysis in PC-3 cells; type: cell-based; conditions: 0, 2, and 5 uM, 24 hours
Experimental: 4×10^6 of human prostate cancer cell line, PC-3 cells were cultured in 100 mm diameter-culture dishes with RPMI media containing 5% FBS for one day, and then treated with the compound prepared in Example 55 at concentrations of 0, 2, and 5 uM for 24 hours, respectively. Then, the cells were carefully washed with 10[…] of PBS twice, and 1 ml of PBS containing protease inhibitor cocktail (Roche, complete™-mini) (1 tablet/50[…] PBS) was added to the each dish. The cells were collected and sonicated. The sonicated cells were centrifuged using a microcentrifuge at 12000 rpm for 20 minutes, and the supernatant was collected. Then, the amount of protein was determined using a Bradford dye reagent (Bio-Rad), and after running 20[…] of the protein on an SDS-PAGE gel, the protein band was transferred to a nitrocellulose membrane (Bio-Rad). Subsequently, the amounts of each protein were analyzed using primary antibodies and secondary antibodies-HRP (horseradish peroxidase) that are specific to each protein to be tested (Amersham or Bio-Rad), and an ECL chemiluminescence reagent (Amersham).

PC-3 (prostate cancer) = assay: Test for inhibition of tumor cell growth (SRB), PC-3; type: cell-based, Human; conditions: Homo sapiens; 48 hours, SRB staining; read-out: GI50 PC-3 (prostate ancer)
How it was run: as §1

GI50 [3]: 4.37 µg/mL
GI50 (NUGC-3 (gastric cancer)): 0.9 µg/mL
GI50 (ACHN (kidney cancer)): 3.84 µg/mL
GI50 (PC-3 (prostate cancer)): 0.41 µg/mL
Structure (SMILES): CCCCCCCCCCCC(=O)N1CC[N+](CC)(Cc2cccc(C)c2)CC1 [Example 55, 4-dodecanoyl-1-ethyl-1-(3-methylbenzyl)piperazin-1-ium bromide]
effect of inhibiting tumor growth [1]: 84.0%
reduction of tumor weight [1]: 79.5%
degree of apoptosis [2]: greatly decreased
amount of Bcl2 [4]: down-regulated
amount of RhoB [4]: increased
amount of c-abl [4]: increased
amount of p53 [4]: sharply increased
amount of phosphorylated p53 [4]: sharply increased
